Experimental findings from DBAASP are described below.

Test systems include Candida krusei IOC 4559; Candida albicans MDM8; Bacillus subtilis; Pseudomonas aeruginosa; Proteus vulgaris; Escherichia coli; Salmonella typhimurium; Streptococcus pyogenes.
Assay in all cases: ≥ marks a high value that may be exact or a test limit, other limits are often not marked, values filed in µg/mL are converted to µM
Assay [1] has as its system Candida parapsilosis IOC 4564.
Assay [2] has as its system Candida albicans IOC 4558.
In assay [3] the test system is Candida glabrata IOC 4565.
In assay [4] the test system is Candida tropicalis IOC 4560.
The test system of assay [5] is Trichosporon sp. IOC 4569.
For assay [6], the system named is Klebsiella pneumoniae ATCC 10031.
The test system of assay [7] is Escherichia coli ATCC 25922.
Assay [8] deals with Staphylococcus epidermidis ATCC 12228.
Assay [9] has as its system Micrococcus luteus ATCC 10240.
Assay [10] concerns Pseudomonas aeruginosa ATCC 27853.
The test system of assay [11] is Shigella dysenteriae ATCC 9752.
In assay [12] the test system is Staphylococcus aureus ATCC 6538P.
Assay [13] concerns Salmonella enterica subsp. enterica serovar Typhimurium ATCC 14028.
In assay [14] the test system is Bacillus subtilis ATCC 6633.
In assay [15] the test system is Escherichia coli KCTC 1682.
For assay [16], the system named is Pseudomonas aeruginosa CCARM 2095.
Assay [17] relates to Staphylococcus epidermidis KCTC 1917.
Assay [18] deals with Salmonella typhimurium KCTC 1926.
Assay [19] has as its system Pseudomonas aeruginosa KCTC 1637.
Assay [20] relates to Candida albicans ATCC 64550.
Assay [21] deals with Staphylococcus aureus KCTC 1621.
For assay [22], the system named is Staphylococcus aureus CCARM 3543.
In assay [23] the test system is Bacillus subtilis KCTC 3068.
For assay [24], the system named is Staphylococcus aureus CCARM 3001.
For assay [25], the system named is Pseudomonas aeruginosa CCARM 2109.
Assay [26] concerns Staphylococcus epidermidis.

SMILES strings stand for the structures. Converted amounts (≈) assume the structure as drawn.

For the molecule `CC[C@H](C)[C@H](N)C(=O)N[C@H](C(=O)N[C@H](C(=O)N[C@@H](CCC(N)=O)C(=O)N[C@@H](Cc1ccc(O)cc1)C(=O)N[C@@H](CCC(=O)O)C(=O)NCC(=O)N[C@@H](Cc1cnc[nH]1)C(=O)N[C@@H](CCCCN)C(=O)N[C@@H](Cc1cnc[nH]1)C(=O)O)[C@@H](C)CC)[C@@H](C)CC` [IIIQYEGHKH], the MIC – broadly, the lowest concentration that inhibits growth of the organism – in assay [1] is no less than 33.5 µM; in assay [2], 16.5 µM (≈ 20.4 µg/mL); in [3], 16.5 µM (≈ 20.4 µg/mL); in [4], 16.5 µM (≈ 20.4 µg/mL); with Candida krusei IOC 4559, no less than 33.5 µM; in [5], 2.1 µM (≈ 2.6 µg/mL). The molecule also displayed an MIC against Candida albicans MDM8 of no less than 33.5 µM.

Consider `CC(C)C[C@H](NC(=O)[C@H](CCCCN)NC(=O)[C@H](CC(C)C)NC(=O)[C@H](CC(C)C)NC(=O)[C@H](Cc1c[nH]c2ccccc12)NC(=O)[C@H](CCCCN)NC(=O)[C@H](CC(C)C)NC(=O)[C@H](CC(C)C)NC(=O)[C@@H](N)CCCCN)C(N)=O` [KLLKWLLKL], for which the MIC in [6] was found to be 5.46 µM (≈ 6.29 µg/mL); in assay [7], 10.8 µM (≈ 12.5 µg/mL); in assay [8], 10.8 µM (≈ 12.5 µg/mL); in assay [9] it was 21.7 µM (≈ 25 µg/mL); in [10], 43.3 µM (≈ 50 µg/mL); in assay [11], 10.8 µM (≈ 12.5 µg/mL). For the same molecule, the MIC in [12] was 2.69 µM (≈ 3.1 µg/mL); in [13] it was 21.7 µM (≈ 25 µg/mL); in assay [14], 10.8 µM (≈ 12.5 µg/mL).

For the molecule `CC(C)C[C@H](NC(=O)[C@H](Cc1c[nH]c2ccccc12)NC(=O)[C@H](CCCCN)NC(=O)[C@H](CCCCN)NC(=O)[C@H](Cc1c[nH]c2ccccc12)NC(=O)[C@H](CC(C)C)NC(=O)[C@H](CCCCN)NC(=O)[C@H](Cc1c[nH]c2ccccc12)NC(=O)[C@H](CC(C)C)NC(=O)[C@@H](N)CCCCN)C(=O)N[C@@H](CCCCN)C(N)=O` [KLWKLWKKWLK], the MIC in [15] was 2 µM (≈ 3.11 µg/mL); in [16] it was 4 µM (≈ 6.22 µg/mL); in assay [17] it was 2 µM (≈ 3.11 µg/mL); in assay [18] it was 1 µM (≈ 1.56 µg/mL); in [19], 2 µM (≈ 3.11 µg/mL); in [20], no less than 100 µM. The MIC is 2 µM (≈ 3.11 µg/mL) in assay [21]; 4 µM (≈ 6.22 µg/mL) in [22]; 4 µM (≈ 6.22 µg/mL) in assay [23]; 4 µM (≈ 6.22 µg/mL) in assay [24]; 8 µM (≈ 12.4 µg/mL) in assay [25].

In the case of `CC(C)C[C@H](NC(=O)[C@H](CCCN=C(N)N)NC(=O)[C@@H]1CCCN1C(=O)[C@H](Cc1cnc[nH]1)NC(=O)[C@@H]1CCCN1C(=O)[C@@H]1CCCN1C(=O)[C@H](CCCN=C(N)N)NC(=O)[C@@H]1CCCN1C(=O)[C@@H]1CCCN1C(=O)[C@H](Cc1cnc[nH]1)NC(=O)[C@@H]1CCCN1C(=O)[C@@H]1CCCN1C(=O)[C@H](CCCN=C(N)N)NC(=O)[C@@H]1CCCN1C(=O)[C@@H]1CCCN1C(=O)[C@H](Cc1cnc[nH]1)NC(=O)[C@@H]1CCCN1C(=O)[C@@H]1CCCN1C(=O)[C@H](CCCN=C(N)N)NC(=O)[C@@H]1CCCN1C(=O)[C@@H]1CCCN1C(=O)[C@H](Cc1cnc[nH]1)NC(=O)[C@@H]1CCCN1C(=O)[C@@H]1CCCN1C(=O)[C@H](CCCN=C(N)N)NC(=O)[C@@H]1CCCN1)C(=O)O` [PRPPHPPRPPHPPRPPHPPRPPHPRL], the MIC in the assay with Bacillus subtilis is no less than 32 µM; with Pseudomonas aeruginosa, 4 µM (≈ 12.1 µg/mL); against Proteus vulgaris, 2 µM (≈ 6.03 µg/mL); with Escherichia coli it was 1 µM (≈ 3.01 µg/mL); in the assay on Salmonella typhimurium, 0.5 µM (≈ 1.51 µg/mL); in assay [26], no less than 64 µM. The molecule further registered an MIC in the assay on Streptococcus pyogenes of no less than 64 µM.

With `CC(C)C[C@H](NC(=O)[C@H](CCCN=C(N)N)NC(=O)[C@@H]1CCCN1C(=O)[C@H](Cc1cnc[nH]1)NC(=O)[C@@H]1CCCN1C(=O)[C@@H]1CCCN1C(=O)[C@H](CCCN=C(N)N)NC(=O)[C@@H]1CCCN1C(=O)[C@@H](N)CCC(N)=O)C(=O)O` [QPRPPHPRL], the MIC was no less than 64 µM in the assay with Bacillus subtilis; 64 µM (≈ 70.2 µg/mL) against Pseudomonas aeruginosa; no less than 64 µM against Proteus vulgaris; 64 µM (≈ 70.2 µg/mL) against Escherichia coli; no less than 32 µM in the assay on Salmonella typhimurium; no less than 64 µM in assay [26]. The MIC against Streptococcus pyogenes was no less than 64 µM.

For the molecule `CC(C)C[C@H](NC(=O)[C@@H](N)CCCN=C(N)N)C(=O)N[C@@H](Cc1c[nH]c2ccccc12)C(=O)N[C@@H](CCCN=C(N)N)C(=O)N[C@@H](CCCN=C(N)N)C(=O)N[C@@H](Cc1c[nH]c2ccccc12)C(=O)N[C@@H](CCCN=C(N)N)C(=O)N[C@@H](CCCN=C(N)N)C(=O)N[C@@H](Cc1c[nH]c2ccccc12)C(=O)N[C@@H](CCCN=C(N)N)C(=O)N[C@@H](CCCN=C(N)N)C(N)=O` [RLWRRWRRWRR], the MIC stood at 8 µM (≈ 14.3 µg/mL) in [15]; 16 µM (≈ 28.5 µg/mL) in assay [16]; 2 µM (≈ 3.56 µg/mL) in assay [17]; 4 µM (≈ 7.13 µg/mL) in assay [18]; 8 µM (≈ 14.3 µg/mL) in assay [19]; 4 µM (≈ 7.13 µg/mL) in assay [21]. Further, the MIC turned out to be 2 µM (≈ 3.56 µg/mL) in assay [22], 4 µM (≈ 7.13 µg/mL) in [23], 8 µM (≈ 14.3 µg/mL) in assay [24] and 16 µM (≈ 28.5 µg/mL) in [25].
